In ChEMBL document CHEMBL3885881, “DrugMatrix”:

Species on record: Rattus norvegicus
Test: DrugMatrix - Regimen: Daily Repeat
Format: toxicity, organism-based, Sprague-Dawley
Parameters: regimen Daily Repeat, gender Male, age 6-8 weeks
Conditions: in vivo, iv, vehicle 100 % SALINE; for ABSOLUTE BASOPHIL / ABSOLUTE EOSINOPHIL / ABSOLUTE LYMPHOCYTE / ABSOLUTE MONOCYTE / ABSOLUTE SEGMENTED NEUTROPHIL / BASOPHIL / EOSINOPHIL / ERYTHROCYTE COUNT / HEMATOCRIT / HEMOGLOBIN / LEUKOCYTE COUNT / LYMPHOCYTE / MEAN CORPUSCULAR HEMOGLOBIN / MEAN CORPUSCULAR HEMOGLOBIN CONCENTRATION / MEAN CORPUSCULAR VOLUME / MONOCYTE / NEUTROPHIL / NUCLEATED RED BLOOD CELLS / PLATELET COUNT: tissue Blood; for ALANINE AMINOTRANSFERASE / ALBUMIN / ALKALINE PHOSPHATASE / ASPARTATE AMINOTRANSFERASE / BLOOD UREA NITROGEN / CARBON DIOXIDE / CHLORIDE / CHOLESTEROL / CREATINE PHOSPHOKINASE / CREATININE / GLUCOSE / LACTATE DEHYDROGENASE / LIPASE / PHOSPHORUS / POTASSIUM / SODIUM / TOTAL BILIRUBIN / TOTAL PROTEIN / URIC ACID: tissue Plasma
[1] = 0 mg/kg, 72 h, dose level Control, time 3 day
[2] = 0 mg/kg, 120 h, dose level Control, time 5 day
[3] = 200 mg/kg, 72 h, dose level Low, time 3 day

Structure (SMILES): CC1(C)S[C@@H]2[C@H](NC(=O)[C@H](NC(=O)N3CCNC3=O)c3ccccc3)C(=O)N2[C@H]1C(=O)O [AZLOCILLIN]
- ABSOLUTE BASOPHIL [1]: 0 CELLS/uL
- ABSOLUTE EOSINOPHIL [1]: 15.33 CELLS/uL
- ABSOLUTE LYMPHOCYTE [1]: 9513.5 CELLS/uL
- ABSOLUTE MONOCYTE [1]: 94.67 CELLS/uL
- ABSOLUTE SEGMENTED NEUTROPHIL [1]: 709.83 CELLS/uL
- BASOPHIL [1]: 0%
- EOSINOPHIL [1]: 0.17%
- ERYTHROCYTE COUNT [1]: 5.63 x10E6/uL
- HEMATOCRIT [1]: 34.63%
- HEMOGLOBIN [1]: 13.6 G/DL
- LEUKOCYTE COUNT [1]: 10.33 x10E3/uL
- LYMPHOCYTE [1]: 92%
- MEAN CORPUSCULAR HEMOGLOBIN [1]: 24.17 pg
- MEAN CORPUSCULAR HEMOGLOBIN CONCENTRATION [1]: 39.28 G/DL
- MEAN CORPUSCULAR VOLUME [1]: 61.57 fL
- MONOCYTE [1]: 0.83%
- NEUTROPHIL [1]: 7%
- NUCLEATED RED BLOOD CELLS [1]: 0 /100WBC
- PLATELET COUNT [1]: 903.17 x10E3/uL
- ALANINE AMINOTRANSFERASE [1]: 49.33 u/L
- ALBUMIN [1]: 4.27 G/DL
- ALKALINE PHOSPHATASE [1]: 400.83 u/L
- ASPARTATE AMINOTRANSFERASE [1]: 77.5 u/L
- BLOOD UREA NITROGEN [1]: 16.33 mg/dL
- CARBON DIOXIDE [1]: 29.33 mmol/L
- CHLORIDE [1]: 99.67 MEQ/L
- CHOLESTEROL [1]: 66.67 mg/dL
- CREATINE PHOSPHOKINASE [1]: 275.33 u/L
- CREATININE [1]: 0.18 mg/dL
- GLUCOSE [1]: 163.83 mg/dL
- LACTATE DEHYDROGENASE [1]: 125.33 u/L
- LIPASE [1]: 10 u/L
- PHOSPHORUS [1]: 12.12 mg/dL
- POTASSIUM [1]: 6.68 MEQ/L
- SODIUM [1]: 144.02 MEQ/L
- TOTAL BILIRUBIN [1]: 0.18 mg/dL
- TOTAL PROTEIN [1]: 5.87 G/DL
- URIC ACID [1]: 1.63 mg/dL
- ABSOLUTE BASOPHIL [2]: 0 CELLS/uL
- ABSOLUTE EOSINOPHIL [2]: 48.83 CELLS/uL
- ABSOLUTE LYMPHOCYTE [2]: 14562 CELLS/uL
- ABSOLUTE MONOCYTE [2]: 138.67 CELLS/uL
- ABSOLUTE SEGMENTED NEUTROPHIL [2]: 1733.83 CELLS/uL
- BASOPHIL [2]: 0%
- EOSINOPHIL [2]: 0.33%
- ERYTHROCYTE COUNT [2]: 5.89 x10E6/uL
- HEMATOCRIT [2]: 36.7%
- HEMOGLOBIN [2]: 14.42 G/DL
- LEUKOCYTE COUNT [2]: 16.48 x10E3/uL
- LYMPHOCYTE [2]: 88.83%
- MEAN CORPUSCULAR HEMOGLOBIN [2]: 24.52 pg
- MEAN CORPUSCULAR HEMOGLOBIN CONCENTRATION [2]: 39.3 G/DL
- MEAN CORPUSCULAR VOLUME [2]: 62.37 fL
- MONOCYTE [2]: 0.67%
- NEUTROPHIL [2]: 10.17%
- NUCLEATED RED BLOOD CELLS [2]: 0 /100WBC
- PLATELET COUNT [2]: 1076.5 x10E3/uL
- ALANINE AMINOTRANSFERASE [2]: 44.67 u/L
- ALBUMIN [2]: 4.23 G/DL
- ALKALINE PHOSPHATASE [2]: 357.33 u/L
- ASPARTATE AMINOTRANSFERASE [2]: 84.83 u/L
- BLOOD UREA NITROGEN [2]: 15.5 mg/dL
- CARBON DIOXIDE [2]: 27 mmol/L
- CHLORIDE [2]: 99.5 MEQ/L
- CHOLESTEROL [2]: 63.67 mg/dL
- CREATINE PHOSPHOKINASE [2]: 331.33 u/L
- CREATININE [2]: 0.18 mg/dL
- GLUCOSE [2]: 167.33 mg/dL
- LACTATE DEHYDROGENASE [2]: 320.17 u/L
- LIPASE [2]: 9.17 u/L
- PHOSPHORUS [2]: 12.05 mg/dL
- POTASSIUM [2]: 6.54 MEQ/L
- SODIUM [2]: 143.02 MEQ/L
- TOTAL BILIRUBIN [2]: 0.2 mg/dL
- TOTAL PROTEIN [2]: 6.23 G/DL
- URIC ACID [2]: 2.07 mg/dL
- ABSOLUTE BASOPHIL [3]: 0 CELLS/uL
- ABSOLUTE EOSINOPHIL [3]: 0 CELLS/uL
- ABSOLUTE LYMPHOCYTE [3]: 12492.33 CELLS/uL
- ABSOLUTE MONOCYTE [3]: 142.67 CELLS/uL
- ABSOLUTE SEGMENTED NEUTROPHIL [3]: 1631.67 CELLS/uL
- BASOPHIL [3]: 0%
- EOSINOPHIL [3]: 0%
- ERYTHROCYTE COUNT [3]: 5.71 x10E6/uL
- HEMATOCRIT [3]: 37.53%
- HEMOGLOBIN [3]: 14.67 G/DL
- LEUKOCYTE COUNT [3]: 14.27 x10E3/uL
- LYMPHOCYTE [3]: 87.67%
- MEAN CORPUSCULAR HEMOGLOBIN [3]: 25.73 pg
- MEAN CORPUSCULAR HEMOGLOBIN CONCENTRATION [3]: 39.1 G/DL
- MEAN CORPUSCULAR VOLUME [3]: 65.8 fL
- MONOCYTE [3]: 1%
- NEUTROPHIL [3]: 11.33%
- NUCLEATED RED BLOOD CELLS [3]: 0 /100WBC
- PLATELET COUNT [3]: 1015.67 x10E3/uL
- ALANINE AMINOTRANSFERASE [3]: 70.67 u/L
- ALBUMIN [3]: 4.47 G/DL
- ALKALINE PHOSPHATASE [3]: 482 u/L
- ASPARTATE AMINOTRANSFERASE [3]: 112.67 u/L
- BLOOD UREA NITROGEN [3]: 16.67 mg/dL
- CARBON DIOXIDE [3]: 27.33 mmol/L
- CHLORIDE [3]: 102.33 MEQ/L
- CHOLESTEROL [3]: 82.67 mg/dL
- CREATINE PHOSPHOKINASE [3]: 554 u/L
- CREATININE [3]: 0.22 mg/dL
- GLUCOSE [3]: 148 mg/dL
- LACTATE DEHYDROGENASE [3]: 194.33 u/L
- LIPASE [3]: 10 u/L
- PHOSPHORUS [3]: 11.97 mg/dL
- POTASSIUM [3]: 7.02 MEQ/L
- SODIUM [3]: 145.3 MEQ/L
- TOTAL BILIRUBIN [3]: 0.23 mg/dL
- TOTAL PROTEIN [3]: 5.97 G/DL
- URIC ACID [3]: 1.67 mg/dL
